Source: article PMC13408522, “The Effect of Glycosylation on Biodistribution and Cytotoxicity of ^99mTc-Radiolabeled Luteolin” (Advanced Pharmaceutical Bulletin, 2025)
“Also recorded” adds a separate entry of the source. Like-named read-outs stand apart in the source and are kept apart here.

Key:
SW480 cells = experiment: MTT cell viability assay, SW480; assay type: cell-based; conditions: 5-200 µg/mL, 24 h
Method: (§1) According to the biodistribution results of Lu and LuG in the previous step, three cell lines were selected for further analysis. HUVEC cell line (an endothelial cell that was isolated from the umbilical cord vein) as a normal cell, SW480 as a colorectal cancer cell line, and HepG2 as a hepatocellular carcinoma cell line were obtained from the cell bank of Roshd Azma Company. They were cultured in Dulbecco’s Modified Eagle Medium (DMEM) supplemented with FBS 10% (Fetal Bovine Serum) and Pen/Sterp 10^4 U/mL (Penicillin- Streptomycin) at 37°C and 5% carbon dioxide (CO2). Then, 10^5 cells/mL were seeded in 96-well cell culture plates and incubated for 24 h.
(§2) After 24 h, the cell lines were treated with Lu and LuG (5, 10, 25, 50, 75, 100, 200 µg/mL). The cytotoxicity effect of Lu and LuG was measured using the MTT (3-[4,5-dimethylthiazol-2-yl]- 2,5-diphenyltetrazolium bromide) assay for 24 h. Next, 20 μL of MTT solution (5 mg/mL) was added to each well, and the complexes were incubated at 37°C for 4 hours. Afterward, the culture medium was removed and replaced with DMSO 200 μL). The absorbance of each well was determined at 570 nm using an ELISA reader, and the cell viability percentage was calculated relative to the control group.

HepG2 cells [1] = conditions: cited from earlier work
HUVEC cells = experiment: MTT cell viability assay, HUVEC normal cells; assay type: cell-based; conditions: 5-200 µg/mL, 24 h
Method: as §1, §2

HepG2 cells [2] = experiment: MTT cell viability assay, HepG2; assay type: cell-based; conditions: 5-200 µg/mL, 24 h (LuG also 48 and 72 h)
Method: as §1, §2

HepG2 cells [3] = system: HepG2 cells; design: method as in PMID 32129972; conditions: cited from earlier work
[4] = Biodistribution of 99mTc-radiolabeled flavonoids, organ radioactivity after SPECT imaging; design: species or system Wistar-Albino rats; conditions: rat, in vivo
Method: Five milligrams of tin chloride (SnCl2) was dissolved in 1 mL of hydrochloric acid 10% and diluted with 3 mL of distilled water, and the pH was adjusted to 7. Then, 1 mg of Lu and LuG and about 4 mCi of fresh pertechnetate (^99mTcO4) in 2 mL of NaCl were added to the complex. Afterward, it was incubated at room temperature for 20 minutes.
An intraperitoneal injection of a ketamine and xylazine mixture anesthetized the Wistar-Albino rats. About 1.4 mCi of flavonoid-^99mTc complex (^99mTc-Lu and ^99mTc-LuG) was injected through the tail vein. The imaging was performed using SPECT (Single-Photon Emission Computed Tomography) at 0, 5, 15, 30, 60, and 90 min. Then, the animals were sacrificed in accordance with all ethical considerations, and each organ was carefully separated. The percentage of radioactivity in each organ was calculated by dividing the activity counted by the dose calibrator by the total radioactivity. This method ensured accurate assessment of the biodistribution of the radiolabeled compounds within the various organs.
Organ accumulation of ^99mTc−Lu/^99mTc−LuG (%)=(Amount of radioactivity counted in each organ/Amount of radioactivity counted in whole body)×100

HepG2 cells [5] = system: HepG2 cells; design: method as in PMID 24257119; conditions: 24 h treatment; cited from earlier work
HepG2 cells [6] = experiment: Annexin V-FITC/PI flow cytometry for apoptosis/necrosis; assay type: cell-based; conditions: HepG2, 5, 30, 50 µg/mL
Method: According to the results of the previous steps, LuG was selected for flow cytometry testing on the HepG2 cancer cell line. […] HepG2 cells were treated with LuG (5, 30, 50 µg/mL) for 48 h and then washed with PBS. Next, 300 µL of binding buffer was added to 1 × 10^6 cells and incubated for 15 min at 25°C in away from the light with 4 µL of FITC Annexin V and 2 µL of PI. To investigate apoptotic or necrotic pathways, data were analyzed by FlowJo software. […] Additionally, cells without any treatment (negative control) and those treated with LuG (positive control) were designated as “Auto” and “Unstained”, respectively.

HepG2 cells [7] = experiment: Cell cycle analysis by PI flow cytometry; assay type: cell-based
Method: HepG2 cells were seeded in 6-well plates and treated with various concentrations of Luteolin-7-O-glucoside for 24 h. After treatment, the cells were fixed in a solution of ethanol: water (7:3) at -20 °C. Then, ethanol-fixed cells were washed with PBS and incubated with RNase A (100 μL) for 30 min. Following the RNase treatment, the cells were incubated in a PI/Triton X-100 solution for an additional 30 minutes. The samples were analyzed using a flow cytometer (FACSCalibur), and the data were assessed with FlowJo version 10. Finally, the G0/G1 phase (2N DNA content), S phase (intermediate DNA content), and G2/M phase (4N DNA content) were calculated.[13]

[8] = listed as luteolin-7-O-glucoside

Compound	cytotoxicity on SW480 cells (in words) (SW480 cells)	apoptosis in HepG2 cells (HepG2 cells [1]; luteolin: ref 32)	cytotoxicity on normal HUVEC cells (in words) (HUVEC cells)	cytotoxicity on HepG2 cells (in words) (HepG2 cells [2])	cytotoxicity on HepG2 cells (in words) (HepG2 cells [2]; listed as luteolin)	effect on viability of HepG2 cell line (HepG2 cells [3])	elimination phase of the radiolabeled compound (in words) [4]	apoptosis in HepG2 cells (HepG2 cells [1]; LuG: ref 31)	cell cycle effect in HepG2 (HepG2 cells [5])	cytotoxicity on HepG2 cells (in words) (HepG2 cells [2]; [8])	apoptosis/necrosis of HepG2 cells (in words) (HepG2 cells [6])	apoptosis/necrosis of HepG2 cells (in words) (HepG2 cells [6]; [8])	effect on cell cycle progression (in words) (HepG2 cells [7]; HepG2)	change in S phase versus control (HepG2 cells [7]; HepG2, 24 h)	decrease of 4N DNA content (G2/M phase) versus control (HepG2 cells [7]; HepG2, 24 h)	increase of 2N DNA content (G0/G1 phase) versus control (HepG2 cells [7]; HepG2, 24 h)
O=c1cc(-c2ccc(O)c(O)c2)oc2cc(O)cc(O)c12 [Lu, 3′,4′,5,7-tetrahydroxy flavone]	no inhibitory effects	triggers classical mitochondrial apoptosis	did not demonstrate any cytotoxicity	less accumulation and cytotoxicity	less effective against HepG2 cells compared to the glycone form											
O=c1cc(-c2ccc(O)c(O)c2)oc2cc(O[C@@H]3O[C@H](CO)[C@@H](O)[C@H](O)[C@H]3O)cc(O)c12 [LuG, luteolin-7-O-glucoside]	negligible toxicity; also recorded: no inhibitory effects		negligible toxicity; also recorded: did not demonstrate any cytotoxicity	significant cytotoxicity		dose-dependent effect	more rapidly than that of its aglycone form	induced apoptotic features	induced G2/M phase	highest cytotoxic effect; also recorded: effectively inhibits HepG2 cell viability	non-apoptotic cell death; also recorded: no significant increase	did not involve necrotic or apoptotic pathways	impaired G1 to S progression	no significant changes	about 7%	approximately 5%
